Assay results reported in BindingDB's records for doi:10.1016/j.chembiol.2009.02.013 (Pfizer, 2009).

Target: T1, Fatty-acid amide hydrolase 1 [30-579] (Rattus norvegicus, UniProt P97612)
T1 construct: 30-579
T1 sequence (P97612 whole entry): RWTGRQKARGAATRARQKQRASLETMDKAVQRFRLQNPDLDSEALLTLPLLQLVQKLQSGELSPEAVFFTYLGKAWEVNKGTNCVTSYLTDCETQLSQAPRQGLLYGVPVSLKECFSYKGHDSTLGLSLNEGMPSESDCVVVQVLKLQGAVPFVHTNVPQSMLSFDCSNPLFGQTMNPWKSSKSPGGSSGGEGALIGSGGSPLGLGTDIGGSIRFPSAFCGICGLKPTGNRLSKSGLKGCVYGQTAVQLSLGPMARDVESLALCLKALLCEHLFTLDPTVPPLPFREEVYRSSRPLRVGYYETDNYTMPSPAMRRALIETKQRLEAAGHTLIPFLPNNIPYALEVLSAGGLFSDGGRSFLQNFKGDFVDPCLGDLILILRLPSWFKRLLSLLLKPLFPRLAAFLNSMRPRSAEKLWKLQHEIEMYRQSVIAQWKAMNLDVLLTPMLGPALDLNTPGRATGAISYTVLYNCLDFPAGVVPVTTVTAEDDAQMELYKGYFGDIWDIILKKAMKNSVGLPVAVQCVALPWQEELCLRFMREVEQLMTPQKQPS
Assay: Enzyme-coupled Assay
Source text: Enzyme-coupled assay using oleamide as substrate where stoichiometic quantites of NAD are formed upon the generation of ammonia from oleamide by FAAH hydrolysis.

## O=C(Nc1cccnc1)N1CCC(Cc2cccc(Oc3ccc(C(F)(F)F)cn3)c2)CC1 [PF-3845, 10]
  Ki: 230 nM
